{"source": "patent EP4806904A1", "about": "“POLYPEPTIDE AND USE THEREOF” (Sichuan Gooddoctor Panxi Pharmaceutical Co. Ltd, priority 2023, dated 2026)", "key": {"[1]": {"system": "primary neural stem cells (NSCs)", "assay": "Proliferation of primary neural stem cells, BrdU incorporation (Example 2.1)", "type": "cell-based, SD rats", "settings": "0.02, 0.1, 0.5 mg/mL, 48 h, vs control group", "description": "(§1) This part of the experiment requires feeding male and female rats in advance, then extracting hippocampal neural stem cells from newborn SD rats within 24 h of birth, culturing them to P3 for identification, and then using them for experiments.\n(§2) Extraction and culture of primary neural stem cells (NSCs): Hippocampal neural stem cells were extracted from neonatal SD mice 24 h after birth. The procedure is as follows: first, the neonatal rats were disinfected by soaking in 75% ethanol, then transferred to a biological safety cabinet for manipulation under aseptic conditions. After the entire brain was removed from the neonatal mouse, it was immediately placed in cold D-Hanks solution to remove non-neural tissue. Under a dissecting microscope, the meninges were carefully removed and the hippocampal structures on both sides were separated. […]\nMedium-sized neurospheres formed from P3-P4 generations were centrifuged at 800 rpm for 5 min, the supernatant was discarded, a small amount of complete medium was added and pipetted to form a single-cell suspension, the cells were resuspended, counted, and seeded at 1.0 x 10^5 cells/mL into 24-well plates coated with 25 µg/mL PLL. […] Immunofluorescence staining was performed 4 h later, and the cells were then observed and photographed under a fluorescence microscope. The BrdU-positive cell rate was statistically analyzed."}, "[2]": {"system": "Brain microvascular endothelial cells (BMECs) and brain microvascular smooth muscle cells (BMVSMCs)", "assay": "In vitro angiogenesis assay, BMEC/BMVSMC co-culture on matrigel", "type": "cell-based, mouse", "settings": "0.1 mg/L, 48 h", "summary_of_the_method": "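Mouse BMVSMCs (5×10^3) and BMECs (1×10^3) per well, passages 3-6, co-cultured on matrigel at 37 °C, 5% CO2. After medium change on day 4, polypeptide 0.1 mg/L or VEGFA 10/15/20 ng/L for 48 h; Hoechst/Calcein AM stained, imaged by high-content screening and angiogenesis quantified.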"}, "[3]": {"system": "primary neural stem cells (NSCs)", "assay": "Differentiation of primary neural stem cells, βIII-tubulin fluorescence and Neurite Outgrowth Assay", "type": "cell-based, SD rats", "settings": "100 µg/mL; for neurite outgrowth (total neurite length, maximum neurite length, neurite terminals, neurite initiation points) / Longest neurite length / Neurite initiation points (branches) / Number of neurite terminals / Total neurite length / mean fluorescence intensity of the neuronal marker protein βIII-tubulin / Average fluorescence intensity: 4 days; for neurite outgrowth (total neurite length, maximum neurite length, neurite terminals, neurite initiation points): Neurite Outgrowth Assay; for neurite outgrowth (total neurite length, maximum neurite length, neurite terminals, neurite initiation points) / mean fluorescence intensity of the neuronal marker protein βIII-tubulin: in words; for Longest neurite length / Neurite initiation points (branches) / Number of neurite terminals / Total neurite length / Average fluorescence intensity: significance vs blank control group; for mean fluorescence intensity of the neuronal marker protein βIII-tubulin: vs blank control group; for differentiation of NSCs into neuronal cells: conclusion based on the results of the two analytical methods; for Average fluorescence intensity: βIII-tubulin", "summary_of_the_method": "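Hippocampal NSCs from newborn SD rats, passage 3, seeded at 5×10^4 cells/mL in 2% FBS DMEM/F12 differentiation medium. Polypeptide at final 100 µg/mL (NGF 50 ng/mL positive control) for 4 days. βIII-tubulin immunofluorescence intensity and neurite outgrowth quantified by high-content imaging.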"}, "[4]": {"system": "PSD95 and SYP", "assay": "Western blot of PSD95 and SYP in hippocampus and cortex", "type": "in vivo, SD rats", "settings": "treatment for 14 days, vs Vehicle group, P<0.05", "description": "(§3) Experimental animals, model establishment, grouping and drug administration are the same as in Example 5.\n(§4) The cortical index was calculated for each group of rats 14 days after ischemia-reperfusion injury. tMCAO rats were treated with the polypeptide compound 1 of the invention for 14 days, and the expression of PSD95 and SYP was detected by Western blot."}, "[5]": {"system": "primary neural stem cells (NSCs)", "assay": "Differentiation of primary neural stem cells, MAP-2/GFAP immunofluorescence (Example 2.2)", "type": "cell-based, SD rats", "settings": "0.02, 0.1, 0.5 mg/mL, 4 days, vs control group", "description": "as §1\nas §2, with “separated. The tissue was mechanically broken into flocculent pieces with a scalpel, pipetted, and the tissue sample was transferred to a 15 mL centrifuge tube and centrifuged at 800 rpm for 5 min.” for “separated.”\nMedium-sized neurospheres cultured at P3-P4 were collected, centrifuged at 800 rpm for 5 min, and the supernatant was discarded. […] Subsequently, the images were observed and collected under a fluorescence microscope, and the mean fluorescence intensities of MAP-2 and GFAP were statistically analyzed respectively."}, "[6]": {"system": "tMCAO rats", "assay": "Cortical index 14 days after ischemia-reperfusion injury", "type": "in vivo, SD rats", "settings": "10 mg/kg, tail vein, treatment for 14 days, P<0.01", "description": "as §3, §4"}, "[7]": {"system": "neural stem cell line C17.2", "assay": "Proliferation of neural stem cell line C17.2, BrdU, high-content imaging", "type": "cell-based", "settings": "100 µg/mL, 48 h; for Proliferation-promoting results: percentage of BrdU-positive cells, significance vs blank control group", "description": "• (1) C17.2 cells were seeded in 96-well plates at a concentration of 1500 cells/100 µL/well. After overnight culture for cell adherence, the cells were treated with drugs; • (2) Drug treatment was applied. The final concentration of the polypeptide of the invention was 100 µg/mL. Meanwhile, butylphthalide (NBP, 5 µM) was set as the positive control. The cells were cultured in the incubator for another 48 h; • (3) BrdU was added at 44 h of treatment to a final concentration of 10 µM. Immunofluorescence staining was performed 4 h later, and the percentage of BrdU-positive cells was statistically analyzed using a high-content cell imaging analysis system."}, "[8]": {"settings": "significance vs blank control group"}}, "note": "Where a SMILES comes first, the peptide text is derived from it. [ ]: non-standard residue; d: D form."}
{"compound": "H-ALPAPGTL-OH [Compound 1, H-Ala-Leu-Pro-Ala-Pro-Gly-Thr-Leu-OH]", "values": [{"measurement": "percentage of BrdU-positive cells", "setting": "[1]", "value": "significantly increased"}, {"measurement": "Branch length", "setting": "[2]; [8]", "value": "** (**p < 0.01)"}, {"measurement": "Cell count", "setting": "[2]; [8]", "value": "*** (***p < 0.001)"}, {"measurement": "Number of intersections", "setting": "[2]; [8]", "value": "* (*p < 0.05)"}, {"measurement": "angiogenesis-promoting effects", "setting": "[2]; vs normal group, in words", "value": "exhibited angiogenesis-promoting effects"}, {"measurement": "neurite outgrowth (total neurite length, maximum neurite length, neurite terminals, neurite initiation points)", "setting": "[3]", "value": "promote neurite outgrowth"}, {"measurement": "Longest neurite length", "setting": "[3]", "value": "*** (***p < 0.001)"}, {"measurement": "Neurite initiation points (branches)", "setting": "[3]", "value": "*** (***p < 0.001)"}, {"measurement": "Number of neurite terminals", "setting": "[3]", "value": "*** (***p < 0.001)"}, {"measurement": "Total neurite length", "setting": "[3]", "value": "** (**p < 0.01)"}, {"measurement": "mean fluorescence intensity of the neuronal marker protein βIII-tubulin", "setting": "[3]", "value": "significant increase"}, {"measurement": "differentiation of NSCs into neuronal cells", "setting": "[3]", "value": "promote the differentiation of NSCs into neuronal cells with stable effects"}, {"measurement": "Average fluorescence intensity", "setting": "[3]", "value": "** (**p < 0.01)"}, {"measurement": "expression of PSD95", "setting": "[4]", "value": "significantly increased"}, {"measurement": "expression of SYP", "setting": "[4]", "value": "significantly increased"}, {"measurement": "mean fluorescence intensity of GFAP", "setting": "[5]", "value": "significantly elevated"}, {"measurement": "mean fluorescence intensity of MAP-2", "setting": "[5]", "value": "significantly elevated"}, {"measurement": "cortical index", "setting": "[6]", "value": "significantly increased"}]}
{"compound": "CC(C)C[C@H](NC(=O)[C@@H](NC(=O)CNC(=O)[C@H]1CCCN1C(=O)[C@H](C)NC(=O)[C@@H]1CCCN1C(=O)[C@H](CC(C)C)NC(=O)[C@H](C)N)[C@@H](C)O)C(=O)O", "note": "[Compound 6, H-Ala-Leu-Pro-Ala-D-Pro-Gly-Thr-Leu-OH] (H-ALPA[dP]GTL-OH)", "values": [{"measurement": "Proliferation-promoting results", "setting": "[7]", "value": "* (*p < 0.05)"}, {"measurement": "Branch length", "setting": "[2]; [8]", "value": "* (*p < 0.05)"}, {"measurement": "Number of intersections", "setting": "[2]; [8]", "value": "** (**p < 0.01)"}, {"measurement": "angiogenesis-promoting effects", "setting": "[2]; vs normal group, in words", "value": "exhibited angiogenesis-promoting effects"}, {"measurement": "neurite outgrowth (total neurite length, maximum neurite length, neurite terminals, neurite initiation points)", "setting": "[3]", "value": "tendency to promote neurite outgrowth"}, {"measurement": "Longest neurite length", "setting": "[3]", "value": "* (*p < 0.05)"}, {"measurement": "Neurite initiation points (branches)", "setting": "[3]", "value": "* (*p < 0.05)"}, {"measurement": "Total neurite length", "setting": "[3]", "value": "* (*p < 0.05)"}]}
{"compound": "CC(C)C[C@H](NC(=O)[C@@H](NC(=O)CNC(=O)[C@@H]1CCCN1C(=O)[C@H](C)NC(=O)[C@@H]1CCCN1C(=O)[C@@H](CC(C)C)NC(=O)[C@H](C)N)[C@@H](C)O)C(=O)O", "note": "[Compound 3, H-Ala-D-Leu-Pro-Ala-Pro-Gly-Thr-Leu-OH] (H-A[dL]PAPGTL-OH)", "values": [{"measurement": "number of BrdU positive cells", "setting": "[7]; vs blank control group, in words", "value": "tendency to increase"}, {"measurement": "Cell count", "setting": "[2]; [8]", "value": "* (*p < 0.05)"}, {"measurement": "cell proliferation", "setting": "[2]; vs normal group, in words", "value": "only promoted cell proliferation"}, {"measurement": "Longest neurite length", "setting": "[3]", "value": "** (**p < 0.01)"}, {"measurement": "Neurite initiation points (branches)", "setting": "[3]", "value": "* (*p < 0.05)"}, {"measurement": "Number of neurite terminals", "setting": "[3]", "value": "* (*p < 0.05)"}, {"measurement": "Total neurite length", "setting": "[3]", "value": "** (**p < 0.01)"}, {"measurement": "mean fluorescence intensity of the neuronal marker protein βIII-tubulin", "setting": "[3]", "value": "significant increase"}, {"measurement": "differentiation of NSCs into neuronal cells", "setting": "[3]", "value": "promote the differentiation of NSCs into neuronal cells with stable effects"}, {"measurement": "Average fluorescence intensity", "setting": "[3]", "value": "* (*p < 0.05)"}]}
{"compound": "H-LAPAPGTI-OH [Compound 20, H-Leu-Ala-Pro-Ala-Pro-Gly-Thr-Ile-OH]", "values": [{"measurement": "Proliferation-promoting results", "setting": "[7]", "value": "* (*p < 0.05)"}, {"measurement": "Number of intersections", "setting": "[2]; [8]", "value": "* (*p < 0.05)"}, {"measurement": "Branch length", "setting": "[2]; vs normal group, in words", "value": "no significant effects"}, {"measurement": "number of junctions", "setting": "[2]; vs normal group, in words", "value": "promoting effects"}, {"measurement": "neurite outgrowth (total neurite length, maximum neurite length, neurite terminals, neurite initiation points)", "setting": "[3]", "value": "tendency to promote neurite outgrowth"}, {"measurement": "Longest neurite length", "setting": "[3]", "value": "* (*p < 0.05)"}, {"measurement": "Neurite initiation points (branches)", "setting": "[3]", "value": "* (*p < 0.05)"}, {"measurement": "mean fluorescence intensity of the neuronal marker protein βIII-tubulin", "setting": "[3]", "value": "tendency to enhance"}]}
